Test [1] concerns NFATc1 in normal keratinocytes (NKs). The experiment in a line: NFATc1 expression and nuclear localization (qRT-PCR, western blot) in thapsigargin-treated normal keratinocytes. The note with it: 1 μM TG. In kind it is cell-based, human. As for the experimental part:
(§1) FIG. 4: TG-treated NK display the same features as DK. NKs were pretreated (TG) or not (−) with 1 μM of TG for 24 hours. a-b. […] Reversion by CsA treatment. c-d. TG-treated NK display premature differentiation markers up-regulation. SPRR2, LCE3B-E and loricrin expression is induced after 24 h (TG24) and 48 h (TG48) of TG-treatment in NK. *P<0.05. Results are from NKs from two donors (a) and one donor (b-d) and are representative of two independent experiments from two NKs.
To test whether loss of SERCA2 function is sufficient to induce NFATc1 overexpression and activation associated with premature expression of EDC genes, NKs were treated with 1 μM of thapsigargin (TG), a SERCA pumps inhibitor, for 24 and/or 48 hours to mimick SERCA2 dysfunction in DK.

Test [2] deals with LCE3D, LCE3E, SPRR2B, SPRR2D and loricrin in normal keratinocytes (NKs). The experiment in a line: Expression of EDC differentiation genes (qRT-PCR, western blot) in thapsigargin-treated normal keratinocytes. In kind it is cell-based, human. Particulars: 1 μM TG, 24 and/or 48 hours. The protocol: as §1
In order to confirm that upregulation of differentiation genes is due to SERCA2 defect, qRT-PCR and western blot analysis were performed on TG-treated NKs.
For orientation: In qPCR the cycle at which signal appears reflects the starting amount.

The subject of test [3] is NFATc1 nuclear localization in Darier keratinocytes (DKs). The test is described as follows: NFATc1 nuclear/cytoplasmic localization by western blot in Darier keratinocytes. In kind it is cell-based, human. The note with it: 100 ng/ml Tacrolimus, 24 hours. In general terms: In western blotting, separated proteins are transferred to a membrane and probed.
Protocol: Nuclear (N) and cytoplasmic (C) cell extracts were immunoblotted for NFATc1 and actin for normalization.
Therefore, we treated healthy keratinocytes and DKs with 10 μM of CsA or 100 ng/ml of Tacrolimus for 24 hours. Western blot experiments using a specific antibody directed against NFATc1 were performed on nuclear and cytosolic extracts.
Test [4] relates to LCE3D, LCE3E, SPRR2B, SPRR2D and loricrin in Darier keratinocytes (DKs). The experiment in a line: Expression of EDC differentiation genes (qRT-PCR, western blot) in Darier keratinocytes after NFATc1 inhibition. The format is cell-based, human. The protocol:
FIG. 5: Calcineurin inhibitors and NFATc1 inhibition decreased premature differentiation in DK. Quantitative RT-PCR and western blot were performed on mRNA and protein extracts from five DKs after 48 h Tacrolimus (a-b) or 24 h and 48 h CsA treatment (b). For (a), results are expressed as fold repression compared to non-treated DK and are the mean+/−SEM of five DK. Results are representative of two independent experiments. Asterisks represent statistical significance versus the appropriate control in each case. *P<0.05 and***P<0.001 c. Relative efficiency of small interfering RNA (siRNA)-mediated NFATc1 silencing compared to scrambled control by quantitative PCR and western blotting. Decreased expression of differentiation genes after NFATc1 specific inhibition at mRNA (d). For (d), results are expressed as fold repression compared to DKs transfected with scrambled si-RNA and are the mean+/−SEM of four DK from one experiment.
To substantiate the role of NFATc1 as an enhancer of EDC genes expression in DKs and TG-treated NKs grown in basal condition, we inhibited NFATc1 activation indirectly (using calcineurin inhibitors) and directly (using small interfering RNA-mediated NFATc1 silencing), in Darier keratinocytes.
DKs maintained in proliferating conditions were treated with 100 ng ml^−1 of Tacrolimus for 24 hours.

In test [5] the test system is Darier disease. The note with it: few isolated cases, when retinoids were not recommended; systemic Cyclosporin, topical Tacrolimus; cited from earlier work.

This is an account of results in US20180353486A1, “METHODS AND PHARMACEUTICAL COMPOSITIONS FOR THE TREATMENT OF DARIER DISEASE” (INSERM (Institut National de la Sante et de la Recherche …, priority 2015, published 2018).

Regarding `C/C=C(/C)C(=O)O[C@H]1C(C)=C2[C@H]([C@@H]1OC(=O)CCCCCCC)[C@@](C)(OC(C)=O)C[C@H](OC(=O)CCC)[C@@]1(O)[C@H]2OC(=O)[C@@]1(C)O` [TG, thapsigargin], the “NFATc1 expression (quantitative RT-PCR)” value in test [1] (24 hours) was “increased NFATc1 expression”. The “NFATc1 protein in nuclear extracts (western blot)” value in test [1] (vs non-treated NKs) was “a higher amount of NFATc1 protein was located in the nucleus”. Moreover, the “Expression of LCE3D, LCE3E, SPRR2B, SPRR2D and loricrin transcripts and proteins (qRT-PCR, western blot)” value in test [2] is recorded as “increased expression”.
As to `C=CC[C@@H]1/C=C(\C)C[C@H](C)C[C@H](OC)[C@H]2O[C@@](O)(C(=O)C(=O)N3CCCC[C@H]3C(=O)O[C@H](/C(C)=C/[C@@H]3CC[C@@H](O)[C@H](OC)C3)[C@H](C)[C@@H](O)CC1=O)[C@H](C)C[C@@H]2OC` [Tacrolimus], the “NFATc1 localization in nuclear and cytosolic extracts (western blot)” value in test [3] was “induced NFATc1 translocation from the nucleus to the cytoplasm”. Also, in test [4] (DKs in proliferating conditions, 100 ng ml^−1 Tacrolimus, 24 hours), the “Expression of LCE3D, LCE3E, SPRR2B, SPRR2D and loricrin (quantitative RT-PCR)” value is given as “significantly decreased”. Moreover, the “LCE3B-E, SPRR2 and loricrin protein expression (western blot)” value in test [4] (DKs, Tacrolimus treatment) was “reduced LCE3B-E, SPRR2 and loricrin expression”. Besides, the “Treatment of Darier disease in patients” value in test [5] is given as “successfully used”.
